From paper PMC3362543 (2012)

How the values were obtained:
[1] = system: poly(U)•poly(A)*poly(U) (RNA, polymer) U/A/U; test: ITC, single set of sites; conditions: 35 mM Na+ (25 mM NaCl, 10 mM sodium cacodylate), 0.1 mM Na2EDTA, pH 7.0, 25 °C, triplex 25 µM, per base
[2] = system: poly(U)•poly(A)*poly(U) (RNA, polymer) U/A/U; test: fluorescence titration, Scatchard, McGhee-von Hippel non-cooperative; conditions: 35 mM Na+ (25 mM NaCl, 10 mM sodium cacodylate), 0.1 mM Na2EDTA, pH 7.0, 25 °C, intrinsic constant per isolated site, per base
[3] = system: poly(U)•poly(A)*poly(U) (RNA, polymer) U/A/U; test: absorbance titration, Scatchard, McGhee-von Hippel non-cooperative; conditions: 35 mM Na+ (25 mM NaCl, 10 mM sodium cacodylate), 0.1 mM Na2EDTA, pH 7.0, 25 °C, intrinsic constant per isolated site, per base
[4] = system: poly(U)•poly(A)*poly(U) (RNA, polymer) U/A/U; test: UV melting at 260 nm; conditions: 35 mM Na+ (25 mM NaCl, 10 mM sodium cacodylate), 0.1 mM Na2EDTA, pH 7.0, D/P 0.6, triplex 30 µM (compound 18 µM), third-strand transition, per base

Row | Structure (SMILES) | Ka [1] | Ki [2] | Ki [3] | ΔTm' (3→2) [4] [°C]
1 | COc1ccc2cc3[n+](cc2c1OCCCN)CCc1cc2c(cc1-3)OCO2 | 9.73±0.09 × 10^5 M^-1 | 9.5±0.10 × 10^5 M^-1 | 8.65±0.34 × 10^5 M^-1 | 18.1
2 | COc1ccc2cc3[n+](cc2c1OCCCCCCN)CCc1cc2c(cc1-3)OCO2 | 23±0.10 × 10^5 M^-1 | 47.0±0.56 × 10^5 M^-1 | 39.87±0.41 × 10^5 M^-1 | 20.5
3 | COc1ccc2cc3[n+](cc2c1OC)CCc1cc2c(cc1-3)OCO2 | 1.5±0.04 × 10^5 M^-1 | 3.9±0.05 × 10^5 M^-1 | 2.88±0.02 × 10^5 M^-1 | 17.5
